Test results: PubChem BioAssay (NCI)
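Protocol summary: plate cells (96-well), add compound at 5 concentrations, incubate 48 h, interpolate endpoints linearly. TGI: concentration producing complete growth inhibition.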

Key:
Assay in all cases: inhibition of tumour cell growth, NCI panel, 48 h
786-0 renal = system: 786-0 renal
ACHN renal = system: ACHN renal
CAKI-1 renal = system: CAKI-1 renal
HCT-15 colon = system: HCT-15 colon
HOP-62 NSCLC = system: HOP-62 NSCLC
IGROV1 ovarian = system: IGROV1 ovarian
K-562 leukemia = system: K-562 leukemia
KM12 colon = system: KM12 colon
MALME-3M melanoma = system: MALME-3M melanoma
NCI-H23 lung = system: NCI-H23 lung
OVCAR-4 ovarian = system: OVCAR-4 ovarian
PC-3 prostate = system: PC-3 prostate
RPMI-8226 leukemia = system: RPMI-8226 leukemia
SF-268 CNS = system: SF-268 CNS

Structure (SMILES)	TGI (786-0 renal)	TGI (ACHN renal)	TGI (CAKI-1 renal)	TGI (HCT-15 colon)	TGI (HOP-62 NSCLC)	TGI (IGROV1 ovarian)	TGI (K-562 leukemia)	TGI (KM12 colon)	TGI (MALME-3M melanoma)	TGI (NCI-H23 lung)	TGI (OVCAR-4 ovarian)	TGI (PC-3 prostate)	TGI (RPMI-8226 leukemia)	TGI (SF-268 CNS)
Clc1nc2c(-c3cccs3)ncnc2n1Cc1ccccc1	59.5 µM	4.36 µM	> 21 µM	> 100 µM	> 100 µM	> 100 µM	> 100 µM	37.5 µM	> 100 µM	> 100 µM	> 100 µM	> 76.4 µM	70.6 µM	> 100 µM
CC(C)(C)/C(O)=C\c1nc2cc(C(F)(F)F)ccc2[nH]c1=O	> 100 µM	> 100 µM	> 100 µM	> 100 µM	> 100 µM	> 100 µM	> 100 µM	> 100 µM	> 100 µM	> 100 µM	> 100 µM	> 100 µM	> 100 µM	> 100 µM
S=C(Nc1ccc(Br)cn1)NC12CC3CC(CC(C3)C1)C2	21.3 µM	56.1 µM	> 100 µM	> 100 µM	> 100 µM	30.2 µM	> 100 µM	> 100 µM	58.9 µM	38.9 µM	> 100 µM	43.2 µM	> 100 µM	34.5 µM
NC(CCCCNc1ccn(C2OC(CO)C(O)C2O)c(=O)n1)C(=O)O (stereo not given)	> 100 µM	> 100 µM	> 100 µM	> 100 µM		> 100 µM	> 100 µM	> 100 µM	> 100 µM		> 100 µM	> 100 µM	> 100 µM	> 100 µM
C[C@@H]1C(O)CC[C@H](C)C12CC=CC2=O (stereo not given in full)	> 100 µM	> 100 µM	> 100 µM	> 100 µM	> 100 µM	> 100 µM	> 100 µM		> 100 µM	> 100 µM	> 100 µM	> 100 µM	> 100 µM	> 100 µM
Nc1cccc(OCc2nc(N)nc(N)c2-c2ccc(Cl)cc2)c1	> 100 µM	> 100 µM	> 100 µM	> 100 µM	> 100 µM	> 100 µM	> 100 µM	> 100 µM	> 100 µM	> 100 µM	> 100 µM	> 100 µM	> 100 µM	> 100 µM
O=C1c2ccccc2C(=O)N1c1ccc(OCCN2CCCCC2)cc1	> 100 µM	> 100 µM	> 100 µM	> 100 µM	> 100 µM	> 100 µM	> 100 µM	> 100 µM	> 100 µM	> 100 µM	> 100 µM	> 100 µM	> 100 µM	> 100 µM
CN1CCN(c2ccc3[nH]c(C4=C(O)c5nc(CO)n(C)c5C(=O)C4=O)nc3n2)CC1	> 100 µM	> 100 µM	> 100 µM	> 100 µM	> 100 µM	> 100 µM	> 100 µM	> 100 µM	> 100 µM	> 100 µM	> 100 µM	> 100 µM	> 100 µM	> 100 µM
Cc1cccc2c1C(=O)C(C1OC(=O)c3ccccc31)C2 (stereo not given)	> 100 µM	> 100 µM	> 100 µM	> 100 µM	> 100 µM	> 100 µM	> 100 µM	> 100 µM	> 100 µM	> 100 µM	> 100 µM	> 100 µM	> 100 µM	> 100 µM
O=[N+]([O-])C1(C2([N+](=O)[O-])CCCC2)CCCC1	> 100 µM		> 100 µM	> 100 µM		> 100 µM	> 100 µM	> 100 µM	> 100 µM	> 100 µM	> 100 µM	> 100 µM	> 100 µM	> 100 µM
O=C(O)CCC1(c2ccccc2)NC(=O)NC1=O (stereo not given)	> 100 µM	> 100 µM	> 100 µM	> 100 µM	> 100 µM	> 100 µM	> 100 µM	> 100 µM	> 100 µM	> 100 µM	> 100 µM	> 100 µM	> 100 µM	> 100 µM
COC(=O)CCCCC/C(=C\C(=O)C(Cl)(Cl)Cl)OC	68.5 µM	> 100 µM	> 100 µM	68.2 µM	> 100 µM	32.2 µM	> 100 µM	95 µM	65.2 µM	> 100 µM	42.1 µM	77.9 µM	60.9 µM	86.3 µM
CC(C)(C)C=C=C(C(C)(C)C)P(=O)(O)O	> 100 µM	> 100 µM	> 100 µM	> 100 µM	> 100 µM	> 100 µM	> 100 µM	> 100 µM	> 100 µM	> 100 µM	> 100 µM	> 100 µM	> 100 µM	> 100 µM
CC(C)[Si](OC1=CCCCCC12C(=O)N(C)c1ccccc12)(C(C)C)C(C)C (stereo not given)	37.7 µM	35.9 µM	40.7 µM	33.8 µM	58.1 µM	62.9 µM	> 100 µM	38 µM	45.8 µM	46.1 µM	> 100 µM	> 100 µM	36.5 µM	48.1 µM
Cc1[nH]c2ccccc2c1C=Nc1ccc(Oc2ccccc2)cc1	30.3 µM	30.8 µM	30.4 µM	35 µM		28.3 µM	58.1 µM	31.4 µM	34.6 µM	32.1 µM	34.6 µM	26.9 µM	35.4 µM	34.1 µM
COc1cc2c(c(OC)c1OC)C(=O)CC2N (stereo not given)	> 100 µM	> 100 µM	> 100 µM	> 100 µM		> 100 µM	> 100 µM	> 100 µM	> 100 µM	> 100 µM	> 100 µM	> 100 µM	> 100 µM	> 100 µM
COC/C=C\[C@@]1(O)CCCC[C@@H]1CC(OC)OC	> 100 µM		> 100 µM	> 100 µM	> 100 µM	> 55.6 µM	> 100 µM	> 100 µM	> 100 µM	98.7 µM	> 76.4 µM	> 100 µM	70.9 µM	> 91.9 µM
